Data: patent publication US6087131A, “β-glucosidase from filamentous fungi, and uses thereof” (Institut National de la Recherche Agronomique - I.N.R.A., priority 1995, dated 2000)

Columns and labels:
Assay type in all cases: biochemical
[1] = test system: β-glucosidase BGI of A. oryzae (CBS 12559), molecular mass greater than 130,000; assay: Inhibition of β-glucosidase BGI activity by glucose or δ-gluconolactone, PNPG as substrate
Protocol: (§1) The assay of the β-glucosidase activity is carried out by incubating, for 20 minutes at 40° C., 1 volume of enzymatic sample with 1 volume of p-nitrophenol β-D-glucoside (PNPG) (4 mM in 100 mM acetate buffer, pH 4.4). The quantity of PNP (pnitrophenol) liberated is estimated by adding 6 volumes of 0.1 M Na2 CO3 and monitoring the absorbance reading at 400 nm. The enzymatic activity is expressed in nanokatals per ml (nkat/ml) of enzymatic solution. One nanokatal corresponds to the number of nanomoles of PNP liberated per second under the abovementioned conditions.
(§2) The residual enzymatic activity is estimated after incubating the mixture for 20 minutes at 40° C.

[2] = molecular target: T1, β-glucosidase of A. niger purified from the KLERZYME enzymatic preparation (Aspergillus niger, UniProt A2RAL4); assay: Inhibition of KLERZYME β-glucosidase activity by glucose or δ-gluconolactone, PNPG as substrate
T1 construct: purchased GIST-BROCADES, SECLIN, FRANCE
T1 sequence (A2RAL4 20-860): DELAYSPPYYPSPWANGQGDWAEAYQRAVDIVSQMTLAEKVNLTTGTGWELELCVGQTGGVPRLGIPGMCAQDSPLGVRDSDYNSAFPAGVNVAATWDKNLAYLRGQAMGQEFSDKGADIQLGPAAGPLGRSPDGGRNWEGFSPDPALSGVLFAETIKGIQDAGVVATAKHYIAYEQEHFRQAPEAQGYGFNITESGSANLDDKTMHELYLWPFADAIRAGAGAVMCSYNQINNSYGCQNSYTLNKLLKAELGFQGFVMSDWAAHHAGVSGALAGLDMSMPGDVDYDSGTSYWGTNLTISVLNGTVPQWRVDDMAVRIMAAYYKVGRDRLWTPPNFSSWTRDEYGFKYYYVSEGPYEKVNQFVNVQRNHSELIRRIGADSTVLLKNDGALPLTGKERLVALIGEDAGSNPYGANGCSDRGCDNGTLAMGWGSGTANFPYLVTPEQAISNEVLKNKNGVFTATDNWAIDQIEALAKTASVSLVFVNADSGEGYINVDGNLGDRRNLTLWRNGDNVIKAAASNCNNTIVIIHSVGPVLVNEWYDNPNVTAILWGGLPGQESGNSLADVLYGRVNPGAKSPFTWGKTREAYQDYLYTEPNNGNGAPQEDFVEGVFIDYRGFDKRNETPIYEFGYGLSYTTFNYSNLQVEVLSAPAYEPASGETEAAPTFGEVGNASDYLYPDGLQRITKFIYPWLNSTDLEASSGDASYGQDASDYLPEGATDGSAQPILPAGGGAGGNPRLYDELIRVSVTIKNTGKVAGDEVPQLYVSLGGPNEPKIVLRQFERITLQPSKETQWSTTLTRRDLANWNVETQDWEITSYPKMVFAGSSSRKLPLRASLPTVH
Protocol: as §1, §2

[3] = test system: β-glucosidase BGII of A. oryzae (CBS 12559), exocellular, molecular mass about 30,000; assay: Inhibition of β-glucosidase BGII activity by glucose or δ-gluconolactone, PNPG as substrate; conditions: PNPG 4 mM, 20 minutes at 40° C.
Protocol: as §1, §2

Compound	activity remaining in the presence of glucose ([1]; 25 g/l of glucose, PNPG 4 mM, 20 minutes at 40° C.)	inhibition in the presence of glucose ([1]; 50 g/l of glucose, PNPG 4 mM, 20 minutes at 40° C.)	Ki ([1]; read-out: inhibition constant (Ki) for glucose, with respect to PNPG, Lineweaver-Burk representation, competitive inhibitor) [mM]	remaining activity at 25000 µg/mL ([2]; 20 min, pH 4.4, read-out: activity remaining in the presence of glucose) [%]	inhibition in the presence of glucose ([2]; KLERZYME β-glucosidase, 50 g/l of glucose, PNPG 4 mM, 20 minutes at 40° C.)	activity retained in the presence of glucose ([3]; 25 g/l of glucose)	inhibition in the presence of glucose ([3]; 100 g/l of glucose) [%]	inhibition in the presence of gluconolactone ([1]; 1 g/l of gluconolactone, PNPG 4 mM, 20 minutes at 40° C.)	inhibition in the presence of gluconolactone ([2]; KLERZYME β-glucosidase, 1 g/l of gluconolactone, PNPG 4 mM, 20 minutes at 40° C.)	activity retained in the presence of gluconolactone ([3]; 1 g/l of gluconolactone)	activity retained in the presence of gluconolactone ([3]; 10 g/l of gluconolactone) [%]
OC[C@H]1OC(O)[C@H](O)[C@@H](O)[C@@H]1O (some centres unmarked) [glucose]	about 15%	practically completely inhibited	3.5	~10	practically completely inhibited	about 80%	57				
O=C1O[C@H](CO)[C@@H](O)[C@H](O)[C@H]1O [gluconolactone, δ-gluconolactone]								practically completely inhibited	practically completely inhibited	more than 30%	20
